Data published in patent publication US11325906B2, “Chemical compounds” (AstraZeneca AB, priority 2019, dated 2022).

Experiments:
[1] = system: DLD1 cells; assay: PARP proliferation assay (4 day compound dosing), WT DLD1; type: cell-based; conditions: Homo sapiens, 96 h, WT DLD-1 cells, read-out: WT DLD-1 prolif 4 d IC50
[2] = system: BRCA2 (−/−) DLD1 cells; assay: PARP proliferation assay (4 day compound dosing), BRCA2 (−/−) DLD1; type: cell-based; conditions: Homo sapiens, 96 h, BRCA2 −/− DLD-1 cells, read-out: BRCA2 −/− DLD-1 prolif 4 d IC50

IC50 [1]: > 30000 nM
IC50 [2]: 4 nM
SMILES: CCc1cc2ncc(CN3CCN(c4ccc(C(=O)NC)nc4C)CC3)cc2[nH]c1=O [Example 31, 5-[4-[(7-ethyl-6-oxo-5H-1,5-naphthyridin-3-yl)methyl]piperazin-1-yl]-N,6-dimethyl-pyridine-2-carboxamide]
